Values joined by “and” are separate entries in the source; they are usually repeats but may differ in a detail not shown here. Equal values may be shown once.
Test system: Cephalosporium acremonium (a high ceph C-producing mutant strain which also produces desacetyl ceph C)
Type: cell-based

CCOP(=O)(OCC)C(C)=O [diethyl acetyl phosphonate]
Ceph C: 9285 µg/g and 9665 µg/g | Des C/Total Ceph Nucleus (Ceph C + Des Ceph C): 4.52% and 4.40% | Des Ceph C: 440 µg/g and 445 µg/g
